These results are taken from BindingDB's records for doi:10.1021/acschembio.6b00827 (Universitätsklinikum Frankfurt, 2017).

SMILES strings stand for the structures.

Assay [1] deals with T1, Protein kinase C iota type (Homo sapiens, UniProt P41743).
T1 sequence (P41743 whole entry): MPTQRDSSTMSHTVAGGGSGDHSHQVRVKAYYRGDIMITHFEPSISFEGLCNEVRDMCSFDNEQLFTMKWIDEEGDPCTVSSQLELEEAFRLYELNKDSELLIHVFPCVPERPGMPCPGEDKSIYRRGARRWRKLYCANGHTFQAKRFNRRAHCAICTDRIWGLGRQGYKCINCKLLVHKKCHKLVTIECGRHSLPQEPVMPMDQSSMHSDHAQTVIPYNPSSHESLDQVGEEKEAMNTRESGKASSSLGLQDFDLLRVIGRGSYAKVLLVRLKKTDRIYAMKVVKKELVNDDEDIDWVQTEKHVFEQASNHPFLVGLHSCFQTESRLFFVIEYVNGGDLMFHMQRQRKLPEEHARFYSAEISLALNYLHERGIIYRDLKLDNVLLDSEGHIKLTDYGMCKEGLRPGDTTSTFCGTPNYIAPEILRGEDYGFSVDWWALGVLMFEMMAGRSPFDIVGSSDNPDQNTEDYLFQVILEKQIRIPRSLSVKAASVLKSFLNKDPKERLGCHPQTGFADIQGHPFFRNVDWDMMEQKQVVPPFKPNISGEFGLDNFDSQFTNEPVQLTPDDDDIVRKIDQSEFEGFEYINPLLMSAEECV
The assay is described as follows: PKC AlphaScreen Assay. Particulars: pH 7.4. As to the method: (§1) Interaction assays were performed using the Alpha-Screen (amplified luminescent proximity homogeneous assay) technology, as described previously [Lopez-Garcia et al., Chem. Biol., 18:1463-1473; Zhang et al., Chem. Biol., 21:754-765]. The bead-based assay allows the detection of biomolecular interactions and the effect of small compounds. Briefly, the Alpha-Screen assay was performed in a finalvolume of 25 μL in white 384-well microtiter plates (Greiner Bio-One) with His-PKCι-CD (40 nM) and biotin-pseudosubstrate (80 nM) or His-PKCι-CD (15 nM) and biotin-ROCKtide (100 nM) in a buffer containing 50 mM Tris-HCl (pH 7.4), 100 mM NaCl, 0.01% (v/v) Tween 20, 0.1% (w/v) BSA, 2 mM dithiothreitol (for the PKCι-Rocktide interaction) or 5 mM dithiothreitol (for the PKCι-pseudosubstrate interaction), and the corresponding concentration of the compound. Five microliters of beads at a concentration of 20 μg/mL was added to the mixture (nickel chelate-coated acceptor beads and streptavidin-coated donor beads), and after incubation for 90 min, Alpha-Screen counts were obtained in an EnVision Multiplate reader.
(In general: Bead proximity is the source of the signal in Alpha formats.)

The target in assay [2] is T2, Protein kinase C zeta type (Homo sapiens, UniProt Q05513).
T2 sequence (Q05513 whole entry): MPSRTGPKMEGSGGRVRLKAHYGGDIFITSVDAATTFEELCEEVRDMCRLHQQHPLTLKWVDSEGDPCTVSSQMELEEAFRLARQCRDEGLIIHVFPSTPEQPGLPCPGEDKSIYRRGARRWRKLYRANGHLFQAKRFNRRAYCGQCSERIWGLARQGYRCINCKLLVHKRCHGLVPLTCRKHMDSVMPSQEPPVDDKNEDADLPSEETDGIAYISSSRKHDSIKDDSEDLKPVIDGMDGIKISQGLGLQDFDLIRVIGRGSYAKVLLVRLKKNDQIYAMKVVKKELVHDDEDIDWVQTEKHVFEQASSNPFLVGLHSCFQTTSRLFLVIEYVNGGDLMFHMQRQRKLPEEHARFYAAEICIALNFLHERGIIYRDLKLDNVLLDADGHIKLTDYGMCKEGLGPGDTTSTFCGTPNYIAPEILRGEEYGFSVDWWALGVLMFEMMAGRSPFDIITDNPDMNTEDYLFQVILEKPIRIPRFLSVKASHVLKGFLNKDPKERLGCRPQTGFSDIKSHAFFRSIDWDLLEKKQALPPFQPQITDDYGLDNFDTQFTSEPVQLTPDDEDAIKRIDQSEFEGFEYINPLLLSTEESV
The assay is described as follows: PKC AlphaScreen Assay. Particulars: pH 7.4. As to the method: as §1

Broadly, the IC50 is the concentration that inhibits the measured activity by half. Low values mean greater potency in that assay, high ones weaker potency in that assay.

As to `CCOC(=O)C1=C(O)C(=O)N(c2nc3ccc(Cl)cc3[nH]2)C1c1ccc(Cl)cc1` (configuration not stated) [PS212], the results for the 50% inhibitory concentration (IC50) in assay [1] and in assay [2] were 43.2 µM and 20.5 µM, respectively. Taken in the same sequence, the figures for `CCOC(=O)C1=C(O)C(=O)N(c2nc3ccc(Cl)cc3s2)C1c1cccs1` (configuration not stated) [PS267] were 36.4 µM and 17.8 µM. In turn, `CCOC(=O)C1=C(O)C(=O)N(c2nc3ccc(Cl)cc3[nH]2)C1c1ccccc1` (configuration not stated) [PS312] had a half-inhibitory concentration (IC50) in assay [2] of 44.1 µM. As for `CCOC(=O)C1=C(O)C(=O)N(c2nc3ccc(C)cc3s2)C1c1ccc(-c2ccc(Cl)cc2)o1` (configuration not stated) [PS432], the IC50 in assay [1] was found to be 16.9 µM; in assay [2] it was 18.5 µM.
